Source: PubChem BioAssay (NCI)
Values joined by “and” are separate entries in the source; they are usually repeats but may differ in a detail not shown here. Equal values may be shown once.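 A five-concentration, 48-hour dose response in 96-well plates underlies each endpoint, interpolated linearly between surrounding concentrations. Here, GI50 denotes the concentration required for 50% inhibition of growth. TGI is the concentration that stops growth completely.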

What was measured:
Assay in all cases: DTP human tumour cell line panel, 48 h
A498 renal = tested on: A498 renal
DLD-1 colon = tested on: DLD-1 colon
KM20L2 colon = tested on: KM20L2 colon
LOX IMVI melanoma = tested on: LOX IMVI melanoma
M19-MEL melanoma = tested on: M19-MEL melanoma
NCI-H226 lung = tested on: NCI-H226 lung
NCI/ADR-RES ovarian = tested on: NCI/ADR-RES ovarian
SF-539 CNS = tested on: SF-539 CNS
SK-MEL-2 melanoma = tested on: SK-MEL-2 melanoma
HS 578T breast = tested on: HS 578T breast
M14 melanoma = tested on: M14 melanoma
MDA-MB-231 breast = tested on: MDA-MB-231 breast
MDA-MB-435 = tested on: MDA-MB-435
PC-3 prostate = tested on: PC-3 prostate
T-47D breast = tested on: T-47D breast

| Structure (SMILES) | TGI (A498 renal) | TGI (DLD-1 colon) [µM] | TGI (KM20L2 colon) [µM] | TGI (LOX IMVI melanoma) [µM] | TGI (M19-MEL melanoma) [µM] | TGI (NCI-H226 lung) | TGI (NCI/ADR-RES ovarian) [µM] | TGI (SF-539 CNS) | TGI (SK-MEL-2 melanoma) | TGI (HS 578T breast) | TGI (M14 melanoma) | TGI (MDA-MB-231 breast) | TGI (MDA-MB-435) | TGI (PC-3 prostate) | TGI (T-47D breast) | GI50 (MDA-MB-231 breast) [µM] | GI50 (NCI-H226 lung) [µM] | GI50 (NCI/ADR-RES ovarian) [µM] | GI50 (LOX IMVI melanoma) [µM] |
| --- | --- | --- | --- | --- | --- | --- | --- | --- | --- | --- | --- | --- | --- | --- | --- | --- | --- | --- | --- |
| C/C(=C/C(=O)Nc1ccccc1)Nc1onc(C)c1C | > 100 µM | > 100 | > 100 | > 100 | > 100 | > 100 µM | > 100 | > 100 µM | > 100 µM |  |  |  |  |  |  |  |  |  |  |
| O=C1OC(c2ccccc2)=NC1c1ccccc1 (configuration not stated) | > 100 µM |  |  | > 100 |  | > 100 µM | > 100 | > 100 µM |  | > 100 µM | > 100 µM | > 100 µM | > 100 µM | > 100 µM | > 100 µM |  |  |  |  |
| COc1cc(OC2OC(CO)C(O)C(O)C2O)c2c(O)c3c(=O)cc(C)oc3cc2c1 (configuration not stated) | > 100 µM |  |  | > 100 |  | > 100 µM |  | > 100 µM | > 100 µM | > 100 µM | > 100 µM |  | > 100 µM | > 100 µM | > 100 µM |  |  |  |  |
| CCOC(=O)Cc1cc(OC)c(OC)cc1/C(Cl)=C(\CO)c1ccc(OC)c(OC)c1 |  | > 100 | > 100 | > 100 | > 100 |  |  |  |  |  | > 100 µM |  |  |  |  |  |  |  |  |
| CCCCCC(=O)N[C@@H](c1ccco1)[C@@H](O)C(=O)O[C@H]1C[C@@]2(O)[C@@H](OC(=O)c3ccccc3)[C@@H]3[C@]4(OC(C)=O)CO[C@@H]4C[C@H](O)[C@@]3(C)C(=O)[C@H](OC(C)=O)C(=C1C)C2(C)C |  |  |  |  |  |  | > 25 |  |  | 0.0309 µM and 0.025 µM |  |  |  |  |  | 0.00211 | 0.00133 | 0.617 |  |
| O=C1C(Cl)N(c2c(Cl)cccc2Cl)C1c1c[nH]c2ccccc12 (configuration not stated) |  | > 100 | > 100 |  | > 100 |  |  | > 100 µM | > 100 µM |  | > 100 µM |  |  |  |  |  |  |  |  |
| O=C(Nc1ccc([N+](=O)[O-])cc1)Nn1cnnc1 | > 100 µM |  |  | > 100 |  | 2.31 µM |  | 73.9 µM | > 100 µM | 93.2 µM | > 100 µM |  | > 100 µM | > 100 µM | > 100 µM |  |  |  |  |
| C[N+](C)(CCCCCC[N+](C)(C)CCCN1C(=O)c2cccc3cccc(c23)C1=O)CCCN1C(=O)c2cccc3cccc(c23)C1=O | > 100 µM |  |  | > 100 |  |  | > 100 | > 100 µM | > 100 µM | > 100 µM |  | > 100 µM | > 100 µM | > 100 µM | > 100 µM |  |  |  |  |
| COc1ccccc1/C=C(/C)[N+](=O)[O-] | 21.5 µM and 18.4 µM |  |  | 2.1 |  | 4.22 µM and 3.64 µM | 8.69 | 6.6 µM and 3.71 µM | 5.01 µM and 4.64 µM | 29.3 µM and 26.9 µM | 25.6 µM and 2.78 µM | 17.7 µM and 7.87 µM | 9.18 µM and 3.64 µM | 6.5 µM and 5.37 µM | 4.64 µM and 3.37 µM |  |  |  | 0.263 |
| O=NN1C(c2ccccc2)CNC(=O)CC1c1ccccc1 (configuration not stated) | > 100 µM | > 100 | 63.5 | > 100 | > 100 | > 100 µM | > 64.6 | 96.1 µM | > 80 µM |  |  |  |  |  |  |  |  |  |  |
| CC(C)(O)/C1=C/C=C/CCCCCCCCCC1 | > 100 µM |  |  | > 100 |  | > 100 µM | > 100 |  | > 100 µM | 7.78 µM | > 100 µM | > 100 µM | > 100 µM | > 100 µM | > 100 µM |  |  |  |  |
| O=[N+]([O-])C(=C/c1ccccc1)/C(=C\c1ccccc1)[N+](=O)[O-] |  |  |  | 29.1 |  | 47.3 µM | 42.8 | 12.7 µM | 49.1 µM | 77.1 µM | 41.6 µM | 26.2 µM | 30.3 µM | 44.7 µM | 48.2 µM |  |  |  |  |
| CCNC(=O)C(C)C1CCC2(C)C=CC(=O)C(C)=C2C1O (configuration not stated) | > 100 µM | > 100 | > 100 | > 100 | > 100 | > 100 µM | > 100 | > 100 µM | > 100 µM |  |  |  |  |  |  |  |  |  |  |
| OCC1O[C@H](O[C@@H]2CCCN3CC(O)C(O)[C@@H]23)C(O)C(O)C1O (some centres not stated) | > 100 µM | > 100 | > 100 |  | > 100 | > 100 µM |  | > 100 µM | > 100 µM |  | > 100 µM |  |  |  |  |  |  |  |  |
